The results in this text go back to ChEMBL document CHEMBL1155739, “New indole alkaloids from the bark of Nauclea orientalis” (J Nat Prod, 2001).

Experiment [1] relates to Candida albicans. Kind of experiment: (§1) Inhibition of Candida albicans secreted aspartic protease.
Experiment [2] can be described thus: as §1.

Values after ≈ are worked out from the molar mass of the structure shown. Active and inactive are the calls of the source. No cut-off for these calls is given here.

As to `C=C[C@@H]1C2=C[C@H]3c4[nH]c5ccccc5c4CCN3C(=O)C2=C(O)O[C@H]1O[C@@H]1O[C@H](CO)[C@@H](O)[C@H](O)[C@H]1O`, the outcome in experiment [1] was inactive.
As to `CC(C)CC(=O)N[C@H](C(=O)N[C@H](C(=O)N[C@@H](CC(C)C)[C@@H](O)CC(=O)N[C@@H](C)C(=O)N[C@@H](CC(C)C)[C@@H](O)CC(=O)O)C(C)C)C(C)C` [PEPSTATIN], in experiment [2], the half-inhibitory concentration (IC50) was 6 ng/mL (≈ 8.75 nM).

What is called IC50 is the midpoint of a concentration-inhibition curve. A higher IC50 goes with weaker potency in that assay.
